Measured values: patent publication US8877748B2, “Heterocyclic fused anthraquinone derivatives, manufacturing method and pharmaceutical composition using thereof” (National Defense Medical Center, priority 2012, dated 2014)

Legend:
[1] = tested on: HCT-116; assay: NCI one-dose screening, colon cancer HCT-116; assay type: cell-based, human; details: 10 μM
[2] = tested on: OVCAR-8; assay: NCI one-dose screening, ovarian cancer OVCAR-8; assay type: cell-based, human; details: 10 μM
[3] = tested on: NCI-H226; assay: NCI one-dose screening, non-small cell lung cancer NCI-H226; assay type: cell-based, human; details: 10 μM
[4] = tested on: SR; assay: NCI one-dose screening, leukemia SR; assay type: cell-based, human; details: 10 μM
[5] = tested on: SF-539; assay: NCI one-dose screening, CNS cancer SF-539; assay type: cell-based, human; details: 10 μM
[6] = tested on: CAKI-1; assay: NCI one-dose screening, renal cancer CAKI-1; assay type: cell-based, human; details: 10 μM
[7] = tested on: UACC-257; assay: NCI one-dose screening, melanoma UACC-257; assay type: cell-based, human; details: 10 μM
[8] = tested on: MDA-MB-231/ATCC; assay: NCI one-dose screening, breast cancer MDA-MB-231/ATCC; assay type: cell-based, human; details: 10 μM
[9] = tested on: EKVX; assay: NCI one-dose screening, non-small cell lung cancer EKVX; assay type: cell-based, human; details: 10 μM
[10] = tested on: U251; assay: NCI one-dose screening, CNS cancer U251; assay type: cell-based, human; details: 10 μM
[11] = tested on: human tumor cell lines; assay: NCI one-dose screening, Mean / Delta / Range of growth percent over all tested cell lines; assay type: cell-based; details: 10 μM
[12] = tested on: LOX IMVI; assay: NCI one-dose screening, melanoma LOX IMVI; assay type: cell-based, human; details: 10 μM
[13] = tested on: HS 578-T; assay: NCI one-dose screening, breast cancer HS 578-T; assay type: cell-based, human; details: 10 μM; Breast cancer
[14] = tested on: T-47D; assay: NCI one-dose screening, breast cancer T-47D; assay type: cell-based, human; details: 10 μM
[15] = tested on: SNB-75; assay: NCI one-dose screening, CNS cancer SNB-75; assay type: cell-based, human; details: 10 μM
[16] = tested on: DU145; assay: NCI one-dose screening, prostate cancer DU145; assay type: cell-based, human; details: 10 μM
[17] = tested on: UO-31; assay: NCI one-dose screening, renal cancer UO-31; assay type: cell-based, human; details: 10 μM
[18] = tested on: MDA-MB-468; assay: NCI one-dose screening, breast cancer MDA-MB-468; assay type: cell-based, human; details: 10 μM
[19] = tested on: HCT-15; assay: NCI one-dose screening, colon cancer HCT-15; assay type: cell-based, human; details: 10 μM
[20] = tested on: NCl/ADR-RES; assay: NCI one-dose screening, breast cancer NCl/ADR-RES; assay type: cell-based, human; details: 10 μM; listed under Ovarian cancer
[21] = tested on: HCC-2998; assay: NCI one-dose screening, colon cancer HCC-2998; assay type: cell-based, human; details: 10 μM
[22] = tested on: HL-60, TB; assay: NCI one-dose screening, leukemia HL-60, TB; assay type: cell-based, human; details: 10 μM
[23] = tested on: OVCAR-4; assay: NCI one-dose screening, ovarian cancer OVCAR-4; assay type: cell-based, human; details: 10 μM
[24] = tested on: PC-3; assay: NCI one-dose screening, prostate cancer PC-3; assay type: cell-based, human; details: 10 μM
[25] = tested on: SK-MEL-28; assay: NCI one-dose screening, melanoma SK-MEL-28; assay type: cell-based, human; details: 10 μM
[26] = tested on: SF-295; assay: NCI one-dose screening, CNS cancer SF-295; assay type: cell-based, human; details: 10 μM
[27] = tested on: SF-268; assay: NCI one-dose screening, CNS cancer SF-268; assay type: cell-based, human; details: 10 μM
[28] = tested on: OVCAR-5; assay: NCI one-dose screening, ovarian cancer OVCAR-5; assay type: cell-based, human; details: 10 μM
[29] = tested on: A549/ATCC; assay: NCI one-dose screening, non-small cell lung cancer A549/ATCC; assay type: cell-based, human; details: 10 μM
[30] = tested on: BT-549; assay: NCI one-dose screening, breast cancer BT-549; assay type: cell-based, human; details: 10 μM
[31] = tested on: TK-10; assay: NCI one-dose screening, renal cancer TK-10; assay type: cell-based, human; details: 10 μM
[32] = tested on: NCI-H522; assay: NCI one-dose screening, non-small cell lung cancer NCI-H522; assay type: cell-based, human; details: 10 μM
[33] = tested on: UACC-62; assay: NCI one-dose screening, melanoma UACC-62; assay type: cell-based, human; details: 10 μM
[34] = tested on: NCI-H460; assay: NCI one-dose screening, non-small cell lung cancer NCI-H460; assay type: cell-based, human; details: 10 μM
[35] = tested on: MDA, -MB-435; assay: NCI one-dose screening, breast cancer MDA, -MB-435; assay type: cell-based, human; details: 10 μM; listed under Melanoma
[36] = tested on: IGROV1; assay: NCI one-dose screening, ovarian cancer IGROV1; assay type: cell-based, human; details: 10 μM
[37] = tested on: PRMI-8226 cell line; assay: NCI one-dose screening, leukemia PRMI-8226; assay type: cell-based, human; details: 10 μM
[38] = tested on: SN12C; assay: NCI one-dose screening, renal cancer SN12C; assay type: cell-based, human; details: 10 μM
[39] = tested on: SK-MEL-2; assay: NCI one-dose screening, melanoma SK-MEL-2; assay type: cell-based, human; details: 10 μM
[40] = tested on: NCI-H23; assay: NCI one-dose screening, non-small cell lung cancer NCI-H23; assay type: cell-based, human; details: 10 μM
[41] = tested on: SK-MEL-5; assay: NCI one-dose screening, melanoma SK-MEL-5; assay type: cell-based, human; details: 10 μM
[42] = tested on: HT29; assay: NCI one-dose screening, colon cancer HT29; assay type: cell-based, human; details: 10 μM
[43] = tested on: SNB-19; assay: NCI one-dose screening, CNS cancer SNB-19; assay type: cell-based, human; details: 10 μM
[44] = tested on: NCI-H322M; assay: NCI one-dose screening, non-small cell lung cancer NCI-H322M; assay type: cell-based, human; details: 10 μM; Non-small cell lung cancer
[45] = tested on: RXF, 393; assay: NCI one-dose screening, renal cancer RXF, 393; assay type: cell-based, human; details: 10 μM
[46] = tested on: MALME-3M; assay: NCI one-dose screening, melanoma MALME-3M; assay type: cell-based, human; details: 10 μM
[47] = tested on: M14; assay: NCI one-dose screening, melanoma M14; assay type: cell-based, human; details: 10 μM
[48] = tested on: MCF7; assay: NCI one-dose screening, breast cancer MCF7; assay type: cell-based, human; details: 10 μM
[49] = tested on: CCRF-CEM; assay: NCI screening platform one-dose single concentration screening, leukemia CCRF-CEM; assay type: cell-based, human; details: 10 μM
[50] = tested on: 786-O; assay: NCI one-dose screening, renal cancer 786-O; assay type: cell-based, human; details: 10 μM
[51] = tested on: KM12; assay: NCI one-dose screening, colon cancer KM12; assay type: cell-based, human; details: 10 μM
[52] = tested on: K562cell line; assay: NCI one-dose screening, leukemia K562; assay type: cell-based, human; details: 10 μM
[53] = tested on: MOLT-4; assay: NCI one-dose screening, leukemia MOLT-4; assay type: cell-based, human; details: 10 μM
[54] = tested on: ACHN; assay: NCI one-dose screening, renal cancer ACHN; assay type: cell-based, human; details: 10 μM
[55] = tested on: COLO 205; assay: NCI one-dose screening, colon cancer COLO 205; assay type: cell-based, human; details: 10 μM
[56] = tested on: PC-3 prostate cancer cell line; assay: SRB assay cell viability, PC-3 prostate cancer cell line; assay type: cell-based, human; details: Homo sapiens, PC-3 prostate cancer cell line, Table II prints no unit, μM printed, read-out: SRB assay: 50% inhibition of cancer cell proliferation of sample concentration (IC50) of PC-3 prostate cancer cell line
[57] = tested on: HOP-62; assay: NCI one-dose screening, non-small cell lung cancer HOP-62; assay type: cell-based, human; details: 10 μM
[58] = tested on: HOP-92; assay: NCI one-dose screening, non-small cell lung cancer HOP-92; assay type: cell-based, human; details: 10 μM
[59] = tested on: OVCAR-3; assay: NCI one-dose screening, ovarian cancer OVCAR-3; assay type: cell-based, human; details: 10 μM

## O=C1c2ccccc2C(=O)c2c1cc(Nc1ccc(Cl)cc1)c1nsnc21 [C60, 4-(4-chloro-phenylamino)anthra[2,1-c] [1,2,5]thiadiazol-6,11-dione]
[1]
  Growth Percent HCT-116: 40.51%
[2]
  Growth Percent OVCAR-8: 45.71%
[3]
  Growth Percent NCI-H226: 66.43%
[4]
  Growth Percent SR: 19.52%
[5]
  Growth Percent SF-539: 69.85%
[6]
  Growth Percent CAKI-1: 58.59%
[7]
  Growth Percent UACC-257: 69.64%
[8]
  Growth Percent MDA-MB-231/ATCC: 57.00%
[9]
  Growth Percent EKVX: 81.16%
[10]
  Growth Percent U251: 35.47%
[11]; delta over all cell lines
  Growth Percent Delta: 53.61%
[11]; mean over all cell lines
  Growth Percent Mean: 63.19%
[11]; range over all cell lines
  Growth Percent Range: 111.63%
[12]
  Growth Percent LOX IMVI: 27.09%
[13]
  Growth Percent HS 578T: 76.50%
[14]
  Growth Percent T-47D: 65.23%
[15]
  Growth Percent SNB-75: 69.41%
[16]
  Growth Percent DU145: 87.28%
[17]
  Growth Percent UO-31: 49.04%
[18]
  Growth Percent MDA-MB-468: 32.52%
[19]
  Growth Percent HCT-15: 37.73%
[20]
  Growth Percent NCI/ADR-RES: 55.91%
[21]
  Growth Percent HCC-2998: 91.26%
[22]
  Growth Percent HL-60(TB): 23.13%
[23]
  Growth Percent OVCAR-4: 9.58%
[24]
  Growth Percent PC-3: 42.48%
[25]
  Growth Percent SK-MEL-28: 77.13%
[26]
  Growth Percent SF-295: 78.76%
[27]
  Growth Percent SF-268: 63.91%
[28]
  Growth Percent OVCAR-5: 121.21%
[29]
  Growth Percent A549/ATCC: 72.79%
[30]
  Growth Percent BT-549: 96.78%
[31]
  Growth Percent TK-10: 100.37%
[32]
  Growth Percent NCI-H522: 49.77%
[33]
  Growth Percent UACC-62: 64.65%
[34]
  Growth Percent NCI-H460: 29.27%
[35]
  Growth Percent MDA-MB-435: 72.21%
[36]
  Growth Percent IGROV1: 55.18%
[37]
  Growth Percent RPMI-8226: 36.51%
[38]
  Growth Percent SN12C: 81.98%
[39]
  Growth Percent SK-MEL-2: 84.09%
[40]
  Growth Percent NCI-H23: 58.67%
[41]
  Growth Percent SK-MEL-5: 29.92%
[42]
  Growth Percent HT29: 91.07%
[43]
  Growth Percent SNB-19: 87.03%
[44]
  Growth Percent NCI-H322M: 91.20%
[45]
  Growth Percent RXF 393: 66.60%
[46]
  Growth Percent MALME-3M: 61.29%
[47]
  Growth Percent M14: 106.75%
[48]
  Growth Percent MCF7: 59.01%
[49]
  Growth Percent CCRF-CEM: 44.80%
[50]
  Growth Percent 786-0: 95.95%
[51]
  Growth Percent KM12: 71.40%
[52]
  Growth Percent K562: 32.82%
[53]
  Growth Percent MOLT-4: 11.82%
[54]
  Growth Percent ACHN: 70.10%
[55]
  Growth Percent COLO 205: 94.87%
[56]
  IC50: 9.5 µM
[57]
  Growth Percent HOP-62: 71.23%
[58]
  Growth Percent HOP-92: 88.03%
[59]
  Growth Percent OVCAR-3: 76.23%
